# Tests used:
# Experiment in all cases: fluorescence titration of purified protein, hyperbolic fit, […]°C
# [1] = target: T1, drFabp2 (intestinal fatty acid binding protein) (Danio rerio, UniProt A0A8M1P5F0, K17A/K28A/R29A)
# T1 construct: gene fabp2; Full-length mutant, recombinant from E. coli BL21 (DE3), delipidated (apo)
# [2] = target: T2, drFabp2 (intestinal fatty acid binding protein) (Danio rerio, UniProt A0A8M1P5F0)
# T2 construct: gene fabp2; Full-length wild-type, recombinant from E. coli BL21 (DE3), delipidated (apo)
# T2 sequence (A0A8M1P5F0 1-132): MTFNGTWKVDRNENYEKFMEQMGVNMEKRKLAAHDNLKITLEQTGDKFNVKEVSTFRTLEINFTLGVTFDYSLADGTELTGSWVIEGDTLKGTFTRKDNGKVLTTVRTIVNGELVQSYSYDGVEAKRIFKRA
# [3] = target: T3, drFabp2 (intestinal fatty acid binding protein) (Danio rerio, UniProt A0A8M1P5F0, K17A/K30A/R29A)
# T3 construct: gene fabp2; Full-length mutant, recombinant from E. coli BL21 (DE3), delipidated (apo)
# T3 sequence (A0A8M1P5F0 entry or part of it K17A/R29A/K30A): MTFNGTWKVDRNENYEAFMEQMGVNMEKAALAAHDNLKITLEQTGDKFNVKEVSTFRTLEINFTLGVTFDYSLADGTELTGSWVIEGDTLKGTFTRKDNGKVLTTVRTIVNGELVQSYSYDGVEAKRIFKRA
# T1 sequence (A0A8M1P5F0 entry or part of it K17A/K28A/R29A): as the sequence (A0A8M1P5F0 entry or part of it K17A/R29A/K30A) above, with K28A, A30K counted along it
smiles,measurement,setting,value
CC1=CC(C)=[N+]2C1=Cc1ccc(CCCCCCCCCCCCCCCC(=O)O)n1[B-]2(F)F [BODIPY FL C16],Kd,[1],112 nM
same,Kd,[2],160 nM
same,Kd,[3],129 nM
